In assay [1] the target is T1, human C-terminal DNMT3A (a.a. 623-908) (Homo sapiens, UniProt Q9Y6K1).
T1 construct: The human C-terminal DNMT3A (a.a. 623-908); made in house
As to the kind of experiment: hDNMT3A restriction-based fluorescence assay. The settings on record: for inhibition at 10 µM / inhibition at 32 µM: read-out: hDNMT 3A inhibition, Inhibition (%); for EC50: brackets: 95% confidence interval, read-out: hDNMT 3A inhibition EC50. In kind it is biochemical. The source says: hDNMT3A enzyme inhibition was adapted from the restriction-based fluorescence assay protocol as described in the literature (Ceccaldi et al. ChemBioChem 2011, 12, 1337-1345). Briefly, a 5′-labelled biotin oligonucleotide is hybridized to its complementary strand labelled with 6-carboxyfluorescein at the 3′-end into a 384 well microplate (black Optiplates; Perkin Elmer) pre-coated with avidin. The duplex contains a unique CpG site overlapping with a restriction site of a methylation sensitive restriction enzyme. The human C-terminal DNMT3A (a.a. 623-908), produced as described in the literature (Gros et al. Nucl. Acids Res. 2013, 41(19):e185), was added in each well (200 ng/well) and mixed with the chemical compounds at desired concentrations and freshly prepared AdoMet (20 μM final concentration) to start the reaction in a total volume of 50 μL. After 1 hour incubation at 37° C. each well were washed three times with PBS, Tween-20 0.05%, NaCl (500 mM) and three more times with PBST. Specific fluorescent signals were detected with the methylation-sensitive restriction enzyme HpyCH4IV (NEB) as described and measured on a Perkin Elmer Envision detector. The percentage of inhibition is reported. The formula used to calculate the percentage of inhibition is [(X−Y)/X]×100, where X is the signal determined in the absence of the inhibitor and Y is the signal obtained in the presence of the inhibitor. The concentration at which 50% of efficacy of inhibition is observed (EC50) was determined by analysis of a concentration range of the tested compound in triplicates. The non-linear regression fittings with sigmoidal dose-response (variable slope) were performed with GraphPad Prism 4.03 (GraphPad Software).

The target in assay [2] is T2, His-DNMT1 (182 kDa, human) (Homo sapiens, UniProt P26358).
T2 construct: His; made in house
As to the kind of experiment: hDNMT1 assay ([methyl-3H] SAM Flashplate). It is filed as biochemical. The settings on record: read-out: hDNMT1 percentage of inhibition. As for the experimental part: His-DNMT1 (182 kDa, human) was cloned, expressed and purified as described in the literature (Halby et al. ChemBioChem 2012, 13, 157-165). The reaction was performed in a […] total reaction volume in low volume NBS™ 384-well microplates (Corning), containing the tested compound (up to 1% DMSO), 1 μM of a SAM/[methyl-^3H] SAM (3 TBq/mmol, PerkinElmer) mix in a ratio of 3-to-1 (isotopic dilution 1*:3), 0.3 μM of biotinylated hemimethylated DNA duplex (5′-GATmCGCmCGATGmCGmCGAATmCGmCGATmCGATGmCGAT-3′ and BIOT-5′-[…]-3′), and 90 nM of DNMT1 in methylation buffer (20 mM HEPES pH 7.2, 1 mM EDTA, 50 mM KCl, 25 μg/mL BSA). The reaction was incubated at 37° C. for 2 hours. 8 μL, are then transferred into a streptavidin 96-well scintillant coated Flashplate™ (PerkinElmer) containing 190 μL of 20 μM SAH in 50 mM Tris-HCl pH 7.4. The Flashplate™ was agitated at room temperature for 1 hour and read in 200 μL of 50 mM Tris-HCl pH 7.4 on TopCount NXT (PerkinElmer). The percentage of inhibition is reported. The formula used to calculate the percentage of inhibition is [(X−Y)/X]×100, where X is the signal determined in the absence of the inhibitor and Y is the signal obtained in the presence of the inhibitor.

Assay [3] concerns luciferase reporter under the control of a methylated CMV promoter in leukemia KG-1 cells. In words: CMV-luc reexpression (luciferase reporter) in KG-1 cells. The settings on record: 24 hour incubation, fold induction vs DMSO, mean ± standard error. In kind it is cell-based, human. As for the experimental part:
Aiming at identifying new DNMT inhibitors, plant extract samples were tested for their ability to reactivate gene expression upon use of an integrated luciferase reporter system under the control of a methylated CMV promoter in leukemia KG-1 cells which inhibits its expression (CMV-luc assay reported in following Table). […] The extract was fractionated by preparative HPLC. Identification of the active components was accomplished by HRMS and NMR spectroscopy. The pure compounds isolated from the extract through bio-guided fractionation are trilobine and bisbenzylisoquinoline analogue products. The active compounds were then further evaluated for their ability to inhibit DNMTs in vitro and DNA methylation in cancer cells.
KG-1 cells were stably transfected with the firefly luciferase reporter gene (luc+ from pGL3; Promega) under the control of the cytomegalovirus (CMV) promoter (from pEGFP-N1; Clontech Laboratories Inc.) partially methylated (50%). 20,000 cells per well were seeded in a 96-well plate. After 24 hour incubation in the presence of the test compound or solvant (DMSO), the induction of the promoter was measured by quantification of the luciferase signal with the Brite-lite assay system (PerkinElmer) according to the manufacturer's protocol. The luminescence was measured on an EnVision multilabel plate reader (PerkinElmer), and the data are expressed as the fold induction as compared with the DMSO control. The mean of three experiments and the standard error is reported.

SMILES strings stand for the structures. Some results are limits rather than exact numbers.

T1 sequence (Q9Y6K1 627-912): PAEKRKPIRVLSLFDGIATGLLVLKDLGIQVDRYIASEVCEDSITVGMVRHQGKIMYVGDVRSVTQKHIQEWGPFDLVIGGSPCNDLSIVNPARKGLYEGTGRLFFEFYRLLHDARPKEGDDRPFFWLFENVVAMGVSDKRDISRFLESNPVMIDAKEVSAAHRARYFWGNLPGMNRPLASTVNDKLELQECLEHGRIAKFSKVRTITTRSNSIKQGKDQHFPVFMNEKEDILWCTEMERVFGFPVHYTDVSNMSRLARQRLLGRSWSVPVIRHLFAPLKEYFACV
T2 sequence (P26358 whole entry): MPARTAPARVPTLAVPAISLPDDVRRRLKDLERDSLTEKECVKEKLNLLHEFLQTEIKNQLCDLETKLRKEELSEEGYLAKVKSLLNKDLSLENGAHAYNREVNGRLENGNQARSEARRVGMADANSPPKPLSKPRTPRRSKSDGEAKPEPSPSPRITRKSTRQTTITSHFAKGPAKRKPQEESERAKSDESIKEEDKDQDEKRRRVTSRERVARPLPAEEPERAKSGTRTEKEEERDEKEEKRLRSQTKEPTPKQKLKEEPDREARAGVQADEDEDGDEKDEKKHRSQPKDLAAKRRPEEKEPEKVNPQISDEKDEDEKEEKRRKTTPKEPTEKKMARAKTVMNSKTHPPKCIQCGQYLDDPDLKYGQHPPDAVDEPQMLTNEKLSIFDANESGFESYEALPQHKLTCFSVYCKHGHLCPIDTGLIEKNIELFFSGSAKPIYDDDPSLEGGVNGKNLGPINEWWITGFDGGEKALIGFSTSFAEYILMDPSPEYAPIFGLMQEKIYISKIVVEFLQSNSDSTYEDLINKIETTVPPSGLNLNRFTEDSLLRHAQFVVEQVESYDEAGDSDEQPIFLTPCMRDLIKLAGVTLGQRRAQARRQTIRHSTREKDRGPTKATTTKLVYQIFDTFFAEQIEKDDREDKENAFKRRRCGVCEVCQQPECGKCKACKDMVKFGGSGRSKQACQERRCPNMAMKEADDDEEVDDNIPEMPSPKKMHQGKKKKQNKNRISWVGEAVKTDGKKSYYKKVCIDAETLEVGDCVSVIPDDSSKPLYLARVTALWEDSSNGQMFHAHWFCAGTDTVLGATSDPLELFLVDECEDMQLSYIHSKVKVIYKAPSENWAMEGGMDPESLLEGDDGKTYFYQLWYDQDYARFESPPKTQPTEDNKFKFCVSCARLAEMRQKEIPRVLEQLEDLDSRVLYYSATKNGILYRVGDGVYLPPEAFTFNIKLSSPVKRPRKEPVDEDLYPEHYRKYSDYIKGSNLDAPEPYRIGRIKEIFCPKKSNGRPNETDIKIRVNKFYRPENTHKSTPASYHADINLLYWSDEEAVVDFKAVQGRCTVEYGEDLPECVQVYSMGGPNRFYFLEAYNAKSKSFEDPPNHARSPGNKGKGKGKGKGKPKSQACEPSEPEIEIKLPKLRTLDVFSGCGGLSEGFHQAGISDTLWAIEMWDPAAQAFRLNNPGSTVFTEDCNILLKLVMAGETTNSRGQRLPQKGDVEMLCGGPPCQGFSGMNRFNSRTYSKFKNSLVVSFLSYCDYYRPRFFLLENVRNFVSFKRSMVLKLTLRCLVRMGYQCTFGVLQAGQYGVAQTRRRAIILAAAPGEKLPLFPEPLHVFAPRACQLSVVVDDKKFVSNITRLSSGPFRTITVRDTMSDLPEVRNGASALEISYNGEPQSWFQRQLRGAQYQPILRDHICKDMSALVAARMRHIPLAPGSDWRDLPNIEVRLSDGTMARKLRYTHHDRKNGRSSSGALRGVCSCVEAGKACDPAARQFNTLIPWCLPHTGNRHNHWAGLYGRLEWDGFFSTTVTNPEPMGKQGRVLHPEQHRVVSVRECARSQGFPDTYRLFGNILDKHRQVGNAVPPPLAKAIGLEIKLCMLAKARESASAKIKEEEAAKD

For the compound `COc1ccc2cc1Oc1ccc(cc1)C[C@H]1c3c(cc(OC)c4c3Oc3cc5c(cc3O4)CCN=C5C2)CCN1C` [Compound 9, 1,2-Dehydrotelobine], in assay [1], the inhibition at 10 µM stood at 37%, the inhibition at 32 µM came to 63% and the 50% effective concentration (EC50) is greater than 10 µM.
For the compound `COc1ccc2cc1Oc1ccc(cc1)C[C@@H]1NCCc3cc(OC)c4c(c31)Oc1cc3c(cc1O4)CCN[C@H]3C2` [Compound 7, Nortrilobine], the inhibition at 32 µM in assay [2] stood at 99%; in assay [1], 94%. The “Reactivation fold of luciferase gene reporter in KG-1 CMV-Luc” value (“Reactivation fold” below) turned out to be 1.1 ± 0.2 fold in assay [3] (0.1 μM); 1.7 ± 0.5 fold in assay [3] (0.32 μM); 1.9 ± 1.3 fold in assay [3] (0.5 μM); 2.6 ± 1.8 fold in assay [3] (1 μM); 5.4 ± 2.6 fold in assay [3] (3.2 μM); 12.3 ± 1.2 fold in assay [3] (5 μM). The “Reactivation fold” value in assay [3] (10 μM) is “cyt. tox”. For the same compound, in assay [1], the inhibition at 10 µM is 83%.
Regarding `COc1cc2c3c4c1Oc1cc5c(cc1O4)C(=NCC5)Cc1ccc(O)c(c1)Oc1ccc(cc1)C[C@@H]3N(C)CC2` [Compound 8, 1,2-Dehydroapateline], in assay [1], the inhibition at 10 µM was 41%, the inhibition at 32 µM was found to be 68% and the 50% effective concentration (EC50) is greater than 10 µM.
As for `COc1ccc2cc1Oc1ccc(cc1)C[C@H]1c3c(cc(OC)c4c3Oc3cc5c(cc3O4)CCN[C@H]5C2)CCN1C` [Compound 3, O-Methylcocsoline], in assay [1], the inhibition at 10 µM is 95% and the inhibition at 32 µM is 100%.
Regarding `COc1ccc2cc1Oc1ccc(cc1)C[C@H]1c3c(cc(OC)c4c3Oc3cc5c(cc3O4)CCN(C)[C@H]5C2)CCN1C` [Compound 2, Isotrilobine], the “Reactivation fold” value in assay [3] (0.1 μM) is given as 1.0 ± 0.1 fold; in assay [3] (0.32 μM) it was 2.4 ± 1.4 fold; in assay [3] (0.5 μM), 2.8 ± 0.8 fold; in assay [3] (1 μM), 3.6 ± 2.9 fold; in assay [3] (3.2 μM), 2.4 ± 0.7 fold; in assay [3] (5 μM), 3.1 ± 0.6 fold. For the same compound, the “Reactivation fold” value in assay [3] (10 μM) turned out to be 6.1 ± 0.5 fold. Moreover, the inhibition at 10 µM in assay [1] came out at 56%. The inhibition at 32 µM in assay [1] was 76%.
With `COc1cc2c3c4c1Oc1cc5c(cc1O4)[C@H](Cc1ccc(O)c(c1)Oc1ccc(cc1)C[C@@H]3NCC2)N(C)CC5` [Compound 5, 2′-Norcocsuline], the “Reactivation fold” value was found to be 1.0 ± 0.2 fold in assay [3] (0.1 μM); 2.3 ± 0.7 fold in assay [3] (0.32 μM); 2.1 ± 0.6 fold in assay [3] (0.5 μM); 2.6 ± 1.6 fold in assay [3] (1 μM); 3.9 ± 0.4 fold in assay [3] (3.2 μM); 5.1 ± 0.1 fold in assay [3] (5 μM). In addition, in assay [3] (10 μM), the “Reactivation fold” value was “cyt. tox”. The inhibition at 10 µM in assay [1] is 73%. Also, in assay [1], the inhibition at 32 µM came to 88%.
Regarding `COc1cc2c3c4c1Oc1cc5c(cc1O4)[C@H](Cc1ccc(O)c(c1)Oc1ccc(cc1)C[C@@H]3N(C)CC2)N(C)CC5` [Compound 4, Cocsuline], in assay [1], the inhibition at 10 µM is 23%, the inhibition at 32 µM came to 66% and the 50% effective concentration (EC50) was greater than 10 µM.
In the case of `COc1cc2c3c4c1Oc1cc5c(cc1O4)[C@H](Cc1ccc(O)c(c1)Oc1ccc(cc1)C[C@@H]3N(C)CC2)NCC5` [Compound 6, Cocsoline], in assay [1], the inhibition at 10 µM came to 37%, the inhibition at 32 µM stood at 91% and the EC50 is greater than 10 µM.

(Values after patent publication US10517863B2, “Trilobine and its natural analogs for use as a drug” (PIERRE FABRE MEDICAMENT, priority 2015, dated 2019).)
